For 84 molecules, Ki results are on record in the Kinase Knowledgebase extract (Sharma et al. 2016).

For the assay, the target named is PIK3CG (human) (UniProt P48736). The assay can be described thus: Inhibition of PIK3CG Kinase Activity.

Broadly, the Ki is the dissociation constant of the complex between target and ligand, obtained from inhibition or displacement. Lower therefore signals higher affinity.

Sequence of PIK3CG (human) (P48736 whole entry, looked up): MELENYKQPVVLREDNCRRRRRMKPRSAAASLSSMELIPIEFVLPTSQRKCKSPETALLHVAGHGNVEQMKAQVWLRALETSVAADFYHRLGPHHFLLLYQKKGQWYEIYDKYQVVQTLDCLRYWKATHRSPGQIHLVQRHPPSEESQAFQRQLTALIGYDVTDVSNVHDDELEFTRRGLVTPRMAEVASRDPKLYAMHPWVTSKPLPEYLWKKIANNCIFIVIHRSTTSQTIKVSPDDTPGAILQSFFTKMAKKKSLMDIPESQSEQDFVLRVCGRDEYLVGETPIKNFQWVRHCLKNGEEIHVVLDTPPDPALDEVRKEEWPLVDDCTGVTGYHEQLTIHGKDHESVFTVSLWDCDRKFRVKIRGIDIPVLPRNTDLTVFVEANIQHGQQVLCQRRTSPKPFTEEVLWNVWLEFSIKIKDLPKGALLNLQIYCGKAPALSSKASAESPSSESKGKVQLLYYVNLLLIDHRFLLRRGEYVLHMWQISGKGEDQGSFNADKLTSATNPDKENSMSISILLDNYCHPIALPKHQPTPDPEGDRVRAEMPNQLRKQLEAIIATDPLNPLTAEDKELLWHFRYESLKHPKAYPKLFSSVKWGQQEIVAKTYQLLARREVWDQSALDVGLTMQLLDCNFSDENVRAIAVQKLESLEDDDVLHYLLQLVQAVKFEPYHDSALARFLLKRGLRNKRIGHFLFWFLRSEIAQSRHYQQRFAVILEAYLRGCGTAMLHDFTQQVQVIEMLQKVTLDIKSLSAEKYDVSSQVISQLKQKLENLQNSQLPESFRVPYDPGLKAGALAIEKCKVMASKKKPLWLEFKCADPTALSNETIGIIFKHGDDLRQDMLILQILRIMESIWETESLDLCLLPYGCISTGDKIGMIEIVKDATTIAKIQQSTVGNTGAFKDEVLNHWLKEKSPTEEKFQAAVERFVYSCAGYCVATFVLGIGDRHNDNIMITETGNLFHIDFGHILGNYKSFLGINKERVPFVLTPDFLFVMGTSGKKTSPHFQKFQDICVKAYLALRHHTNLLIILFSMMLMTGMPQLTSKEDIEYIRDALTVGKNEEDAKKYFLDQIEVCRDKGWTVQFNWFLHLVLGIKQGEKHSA

`COc1cc(-c2cc(C)c3c(n2)CN(c2ccc(OCCC(F)(F)F)nc2)C3=O)cnc1OC` showed a Ki of under 100 nM.
`CCN(CC)CCn1cc(N2Cc3nc(-c4cnc(OC)c(OC)c4)ccc3C2=O)cn1` gave an inhibitory constant (Ki) of 100 to 490 nM.
Take `COc1cncc(-c2cc(C)c3c(n2)C(C)(C)N(c2cnn(C4CC4)c2)C3=O)c1`: the Ki fell in the range of 100 to 490 nM.
Next, `COc1cc(-c2cc(C)c3c(n2)CN(c2ccnc(C)c2)C3=O)cnc1OC`: under 100 nM; `COc1cncc(-c2cc(C)c3c(n2)C(OC)N(c2cnn(CC(F)(F)F)c2)C3=O)c1` (centres undefined): under 100 nM; `COc1cc(-c2ccc3c(c2)CN(c2cnn(C)c2)C3=O)cnc1OC`: 100 to 490 nM.
Next, `CCOc1cncc(-c2cc(C)c3c(n2)C(C)N(c2cnn(CC(F)(F)F)c2)C3=O)c1` (centres undefined): under 100 nM.
`COc1cc(-c2cc(C)c3c(n2)CN(c2cncc(S(C)(=O)=O)c2)C3=O)cnc1OC`: the inhibition constant (Ki) was under 100 nM.
`COc1cncc(-c2cc(C)c3c(n2)C(C)(C)N(c2ccn([C@@H]4CCOC4)n2)C3=O)c1` displayed an inhibition constant Ki of 100 to 490 nM.
Then `COc1ncc(-c2cc(C)c3c(n2)CN(c2cn[nH]c2)C3=O)cc1OC(C)C`, with under 100 nM; and `C#CCNC(=O)c1cc(-c2cc(C)c3c(n2)C(C)(C)N(c2cnn(CC(F)(F)F)c2)C3=O)cnc1OC`, with under 100 nM.
Then `CCOc1cncc(-c2cc(C)c3c(n2)[C@@H](OC)N(c2cnn(CC(F)(F)F)c2)C3=O)c1`, with under 100 nM; and `CCc1cc(N2Cc3nc(-c4cnc(OC)c(OC)c4)ccc3C2=O)nn1C`, with under 100 nM; and `CCO[C@H]1c2nc(-c3cnc(OC)c(OC)c3)cc(C)c2C(=O)N1c1cnn(CC(F)(F)F)c1`, with under 100 nM.
The molecule `COc1cc(-c2ccc3c(c2)CN(c2cccc(C(C)C#N)c2)C3=O)cnc1OC` (centres undefined) registered a Ki of 100 to 490 nM.
For `Cc1cc(-c2ccc(Cl)c(O)c2)nc2c1C(=O)N(c1cnn(CC(F)(F)F)c1)C2`, the inhibition constant Ki was under 100 nM.
The molecule `COc1cc(-c2ccc3c(n2)C(C)N(c2cncc(C(O)C(F)(F)F)c2)C3=O)cnc1OC` (centres undefined) registered a Ki of under 100 nM.
Next, `COc1ncc(-c2cc(C)c3c(n2)CN(c2cnn(C(C)(C)C#N)c2)C3=O)cn1`: under 100 nM.
Then `COc1cc(-c2ccc3c(n2)CN(c2cnn(Cc4cncn4C)c2)C3=O)cnc1OC`, with under 100 nM; and `COc1ncc(-c2ccc3c(n2)CN(c2cnn(CC#N)c2)C3=O)c(OC)n1`, with 100 to 490 nM.
Next, `COc1cncc(-c2cc(C)c3c(n2)CN(c2cnn(CC(F)F)c2)C3=O)c1`: under 100 nM.
As to `COc1cc(-c2ccc3c(n2)C(C)N(c2ccn(CC(C)(C)F)n2)C3=O)cnc1OC` (centres undefined), the Ki was under 100 nM.
Molecule `CCOC1(C)c2nc(-c3cnc(OC)c(OC)c3)cc(C)c2C(=O)N1c1cnn(CC(F)(F)F)c1` (centres undefined) registered a Ki of under 100 nM.
For the molecule `COc1cc(-c2ccc3c(n2)CN(c2cnn(CC(C)C)c2)C3=O)cnc1OC`, the Ki was under 100 nM.
Then `CCOc1cc(-c2ccc3c(n2)CN(c2cnn(CC#N)c2)C3=O)cnc1OC`, with under 100 nM; and `CCNC(=O)c1cc(-c2cc(C)c3c(n2)C2(CCOC2)N(c2cnn(CC(F)(F)F)c2)C3=O)cnc1OC` (centres undefined), with under 100 nM.
In the case of `Cc1ncc(-c2ccc3c(n2)CN(c2cnn(CC(F)(F)F)c2)C3=O)cc1O`, the Ki lay in the range of 100 to 490 nM.
Next, `Cc1cc(-c2cncc(OC(F)F)c2)nc2c1C(=O)N(c1cnn(C[C@H](C)O)c1)C2C` (some centres undefined): under 100 nM; `Cc1cc(-c2cncc(S(=O)(=O)C(C)C)c2)nc2c1C(=O)N(c1cnn(CC(F)(F)F)c1)C2(C)C`: under 100 nM.
With `CCOc1cncc(-c2cc(C)c3c(n2)C(C)(OC)N(c2cnn(CC(F)(F)F)c2)C3=O)c1` (centres undefined), the Ki was under 100 nM.
Then `COc1cncc(-c2cc(C)c3c(n2)C(C)N(c2cnccn2)C3=O)c1` (centres undefined), with 100 to 490 nM.
In turn, `CCNC(=O)c1cc(-c2cc(C)c3c(n2)C(C)N(c2cnn(CC(F)(F)F)c2)C3=O)cnc1OC` (centres undefined) gave a Ki of under 100 nM.
With `COc1cc(-c2ccc3c(c2)CN(c2cnn(CC4CCCO4)c2)C3=O)cnc1OC` (centres undefined), the inhibition constant Ki was in the range of 100 to 490 nM.
For the molecule `COc1cc(-c2ccc3c(n2)CN(c2cnn(C(C)(C)C#N)c2)C3=O)cnc1OC(F)F`, the inhibition constant (Ki) was under 100 nM.
Next, `CCCNC(=O)c1cncc(-c2cc(C)c3c(n2)C(C)(C)N(c2cnn(CC(F)(F)F)c2)C3=O)c1`: under 100 nM; `COc1ncc(-c2cc(C)c3c(c2)CN(c2cnn(CC(F)(F)F)c2)C3=O)nc1OC`: under 100 nM.
With `COc1cc(OC)cc(-c2cc(C)c3c(n2)C(C)N(c2cnn(CC(F)(F)F)c2)C3=O)c1` (centres undefined), the Ki is under 100 nM.
As for `CCCCOCCOc1cncc(-c2cc(C)c3c(n2)CN(c2cnn(CC(F)(F)F)c2)C3=O)c1`, the Ki is 100 to 490 nM.
Next, `CCC1(O)c2nc(-c3cnc(OC)c(OC)c3)cc(C)c2C(=O)N1c1cnn(CC(F)(F)F)c1` (centres undefined): under 100 nM; `COc1cc(-c2cc(C)c3c(n2)CN(c2cccc(C(C)(C)C#N)n2)C3=O)cnc1OC`: under 100 nM.
Next, `COc1cc(-c2ccc3c(n2)C(C)(C)N(c2cnn(CC(F)(F)F)c2)C3=O)cnc1OC`: under 100 nM; `COC(=O)CC1c2nc(-c3cnc(OC)c(OC)c3)ccc2C(=O)N1c1cnn(CC(F)(F)F)c1` (centres undefined): under 100 nM; `CNC(=O)c1cncc(-c2cc(C)c3c(n2)C(C)(C)N(c2cnn(CC(F)(F)F)c2)C3=O)c1`: under 100 nM.
Next, `COc1cc(-c2cc(C)c3c(n2)C(O)N(c2nc(C)cs2)C3=O)cnc1OC` (centres undefined): under 100 nM; `Cc1cc(-c2cncc(C(=O)NC(C)(C)C)c2)nc2c1C(=O)N(c1cnn(CC(F)(F)F)c1)C2`: under 100 nM; `COc1cc(-c2cc(C)c3c(n2)C(C)(C)N(c2cnn(CC(F)(F)F)c2)C3=O)cnc1OC`: under 100 nM.
Molecule `COc1cc(-c2ccc3c(n2)[C@@H](C)N(c2cnn(CC(C)(C)O)c2)C3=O)cnc1OC` came in with an inhibition constant Ki of under 100 nM.
`Cc1cc(-c2cncc(C(=O)NCC(F)F)c2)nc2c1C(=O)N(c1cnn(CC(F)(F)F)c1)C2(C)C` registered a Ki of under 100 nM.
`Cc1cc(-c2cncc(OCCF)c2)nc2c1C(=O)N(c1cnn(CC(F)(F)F)c1)C2` displayed a Ki of under 100 nM.
Then `COCc1cc(N2Cc3nc(-c4cnc(OC)c(OC)c4)ccc3C2=O)nn1C`, with under 100 nM; and `Cc1cc(-c2cnc(C)c(O)c2)nc2c1C(=O)N(c1cnn(CC(F)(F)F)c1)C2(C)C`, with under 100 nM; and `Cc1cc(-c2cncc(OC(F)F)c2)nc2c1C(=O)N(c1cnn(CC(F)(F)F)c1)C2(C)O` (centres undefined), with under 100 nM.
Next, `COc1cc(-c2ccc3c(n2)CN(c2ccc(=O)n(CC#N)c2)C3=O)cnc1OC`: under 100 nM; `Cc1cc(-c2cncc(OCC(F)(F)F)c2)nc2c1C(=O)N(c1cnn(CC(F)(F)F)c1)C2C` (centres undefined): under 100 nM.
Next, `COc1cc(-c2ccc3c(c2)CN(c2cnn([C@H](C)C#N)c2)C3=O)cnc1OC`: under 100 nM; `COc1cc(-c2ccc3c(c2)CN(c2cccc(C#N)c2)C3=O)cnc1OC`: 100 to 490 nM.
The molecule `Cc1cc(-c2cncc(OC(F)F)c2)nc2c1C(=O)N(c1cncc(CC#N)c1)C2` had a Ki of under 100 nM.
Then `CCO[C@@]1(C)c2nc(-c3cnc(OC)c(OC)c3)cc(C)c2C(=O)N1c1cnn(CC(F)(F)F)c1`, with under 100 nM; and `COc1cc(-c2ccc3c(n2)CN(c2ccc(N(C)CCC4OCCO4)nc2)C3=O)cnc1OC`, with 100 to 490 nM.
Take `COc1cncc(-c2cc(C)c3c(n2)C2(CCCO2)N(c2cnn(CC(F)(F)F)c2)C3=O)c1` (centres undefined): the inhibitory constant (Ki) is under 100 nM.
Take `COc1cc(-c2cc(C)c3c(n2)CN(c2cncc(C#N)c2)C3=O)cnc1OC`: the Ki is under 100 nM.
With `COc1cc(-c2ccc3c(n2)CN(c2cnn([C@H](C)CO)c2)C3=O)cnc1OC`, the inhibition constant (Ki) was under 100 nM.
Then `COc1cc(-c2ccc3c(n2)CN(c2cncc(C(C)(C)C#N)c2)C3=O)cnc1OC`, with under 100 nM; and `COc1ccc(-c2cc(C)c3c(c2)CN(c2cnn(CC#N)c2)C3=O)cc1OC`, with under 100 nM.
Next, `COc1cc(-c2cc(C)c3c(n2)CN(c2cnn(C)c2)C3=O)cnc1OC`: under 100 nM; `COc1cc(-c2cc(C)c3c(n2)CN(c2cnn(CC(F)(F)F)c2)C3=O)ccn1`: under 100 nM.
Next, `COc1cc(-c2cc(N(C)C)c3c(n2)CN(c2cnn(CC#N)c2)C3=O)cnc1OC`: under 100 nM; `COCCOC1c2nc(-c3cnc(OC)c(OC)c3)ccc2C(=O)N1c1cnn(CC(F)(F)F)c1` (centres undefined): under 100 nM; `COc1cc(-c2cc(C)c3c(n2)C(C)N(c2cnn(CC(F)(F)F)c2)C3=O)cnc1OC(C)C` (centres undefined): under 100 nM.
On to `COc1cc(-c2ccc3c(n2)CN(c2ccc(N4CCC(C#N)CC4)nc2)C3=O)cnc1OC`, for which the Ki was under 100 nM.
With `CC[C@@]1(OC)c2nc(-c3cnc(OC)c(OC)c3)cc(C)c2C(=O)N1c1cnn(CC(F)(F)F)c1`, the inhibitory constant (Ki) was under 100 nM.
Turning to `COc1cc(-c2ccc3c(n2)[C@@H](C)N(c2ccn(CC(C)(C)O)n2)C3=O)cnc1OC`, the inhibition constant (Ki) was under 100 nM.
Next, `COc1cc(-c2ccc3c(n2)C(C)N(c2cnn(C[C@@H](C)O)c2)C3=O)cnc1OC` (some centres undefined): 100 to 490 nM; `COc1cc(-c2ccc3c(n2)CN(c2ccc(N4CCN(C)CC4)nc2)C3=O)cnc1OC`: under 100 nM; `COc1cc(-c2ccc3c(n2)[C@@H](C)N(c2ccn(CC(F)(F)F)n2)C3=O)cnc1OC`: under 100 nM.
Next, `CC[C@H]1c2nc(-c3cnc(OC)c(OC)c3)ccc2C(=O)N1c1cnn(CC(F)(F)F)c1`: 100 to 490 nM; `Cc1cc(-c2cncc(OC(F)F)c2)nc2c1C(=O)N(c1cnn(C[C@H](C)O)c1)[C@H]2C`: under 100 nM.
Then `Cc1cc(-c2cncc(OCC(F)(F)F)c2)nc2c1C(=O)N(c1cnn(CC(F)(F)F)c1)[C@@H]2C`, with under 100 nM; and `COc1cc(-c2ccc3c(n2)CN(c2cnn(Cc4csc(C)n4)c2)C3=O)cnc1OC`, with under 100 nM; and `CCOc1ccnc(N2Cc3nc(-c4cnc(OC)c(OC)c4)cc(C)c3C2=O)c1`, with under 100 nM.
On to `C=CC1(O)c2nc(-c3cncc(OC)c3)cc(C)c2C(=O)N1c1cnn(CC(F)(F)F)c1` (centres undefined), for which the Ki was 100 to 490 nM.
Next, `CCn1cc(N2Cc3nc(-c4cnc(OC)c(OC)c4)cc(C)c3C2=O)nn1`: under 100 nM; `COc1cc(-c2ccc3c(n2)CN(c2cnn(C[C@H](O)CC#N)c2)C3=O)cnc1OC`: under 100 nM.
Next, `COc1cncc(-c2cc(C)c3c(c2)C(C)N(c2cnn(CC(F)(F)F)c2)C3=O)c1` (centres undefined): under 100 nM.
